Experiments:
[1] = tested on: A2780 cells; assay: Intracellular carbonyl derivatives (DCCH), A2780; assay type: cell-based, human; details: 24 h
Experimental: and the cells were incubated in the dark chamber filled with CO2 (5%) at 37 °C for 20 min.
Next, the cells were detached from the culture dish using trypsin/EDTA (0.025%/0.01%, v/v, 50 µL). The cells were re-suspended in RPMI 1640 medium containing 5% FBS, 1% L-glutamine and 1% penicillin/streptomycin (100 µL). Finally, the fluorescence of live cells (λex = 488 nm, λem = 578 nm) in the suspensions was determined by using flow cytometry […]
Figure S60. Representative flow cytometric histograms used for setting up Figures 4B […]
Monitoring intracellular carbonyl derivatives
A2780 cells were seeded into 24 well culture plates at the same cell concentration and in the same medium as applied for the assay for monitoring tROS described above. The next day, stock solutions of prodrugs of different concentrations (5 μL of stock solutions in DMSO, final concentration of prodrugs 5 and 10 μM; control 7 2 and 5 µM) or carrier only (DMSO, 5 µL, final concentration 1 %, v/v) were added to the wells and incubated in the chamber filled with CO2 (5%). After 24 h, the cells were washed twice with DPBS buffer and the medium was replaced with HBSS (Hanks' Balanced Salt solution, 500 μL). […]
Finally, the fluorescence of live cells (λex = 488 nm, λem = 530 nm) in the suspensions was determined by using flow cytometry (Figure 4C). […]

[2] = tested on: chronic lymphocytic leukemia (CLL) cells; assay: Viability of primary CLL cells (CellTiter Glo); assay type: cell-based, human; details: 48 h
Excerpt: Determination of viability of primary cancer (CLL) and normal (MNC) cells in the […]
Clinical samples from chronic lymphocytic leukemia (CLL) patients (N=6, CLL cells) and healthy donors (N=6; peripheral blood mononuclear cells, MNCs) were collected at the University Hospital Heidelberg, Germany. Informed consent was obtained in accordance with the Declaration of Helsinki. Sample collection and analysis was approved by the ethics committee of the University of Heidelberg (S-254/2016). Blood was separated by a Ficoll gradient (GE Healthcarey), and cells were cryopreserved. Drug sensitivity screening was performed in 384-well format (Greiner Bio One) with 10 different prodrug […]
4x10^4 cells per well. Cells were cultured in RPMI-1640 (Invitrogen) supplemented with penicillin/streptomycin (Invitrogen), L-glutamine (Invitrogen) and 10% pooled and heat inactivated AB-type human serum (Sigma-Aldrich). Cell viability was assessed by quantification of ATP (CellTiter Glo®, Promega) 48 hours after drug application.
Luminescence was measured on a Tecan Infinite F200 Microplate Reader. Viability was calculated as % of solvent (DMSO) treated control. Representative plots of cell viability

Structure (SMILES): CC1(C)OB(c2ccc(COC(=O)N(Cc3cn(Cc4ccc(Cn5cc(Cc6ccccc6)nn5)cc4)nn3)[c-]3cccc3)cc2)OC1(C)C.[Fe+2].c1cc[cH-]c1 [2c]
- formation of intracellular carbonyl derivatives [1]: did not induce formation of significant amounts of carbonyl derivatives
- IC50 ([2]; primary CLL cells from six patients): 6 ± 2 µM
- cancer cell specificity, primary CLL cells vs MNCs ([2]; viability of CLL vs MNC, for 2c at 3.3 and 10 µM): significantly more toxic in the cancer cells than in the normal cells

Reference: article PMC8750417, “Intracellular Amplifiers of Reactive Oxygen Species Affecting Mitochondria as Radiosensitizers” (Cancers, 2021)
